Data reported in patent US5328921A, “Aryl pyridinium compounds which are useful in treating shock” (American Cyanamid Company, priority 1992, dated 1994).
Values joined by “and” are separate entries in the source; they are usually repeats but may differ in a detail not shown here. Equal entries are not always repeated. Structures can show the parent of a compound that is named as a salt.

Legend:
[1] = tested on: PAF induced lethality in mice; experiment: PAF induced lethality in mice; type: in vivo; conditions: 0.5 mg/kg IP 1/2 hour before lethal PAF I.V. challenge, alive after 2 hours, control (saline) 10; for responders at 0.5 mg/kg: Mus musculus, read-out: % Survival
Procedure: PAF given I.V. to mice causes an immediate hypotensive shock leading to death in 1 hour or less. Compounds are given intraperitoneally at 1/2 hour prior to the PAF challenge. Animals alive after 2 hours are counted and the activity of test compounds expressed as survival corrected for any control (saline treated) animals which survived the PAF challenge.

[2] = target: T1, PAF receptor (Oryctolagus cuniculus, UniProt G1TEI7); experiment: In vitro PAF antagonism: inhibition of PAF induced platelet aggregation in rabbit platelet rich plasma; type: cell-based, rabbit (male New Zealand White); conditions: rabbit PRP; for % INH (% of inhibition of PAF induced platelet aggregation): Dose 1.00E-05 M
T1 construct: centrifuged at 800 rpm for 10-15 minutes at room temperature to recover the platelet rich plasma (PRP); endogenous in cells; host or cells: rabbit platelets (platelet rich plasma from citrated blood of male New Zealand White rabbits)
Procedure: Test compounds are evaluated as PAF receptor antagonists in vitro by measuring inhibition of PAF (platelet activating factor) induced platelet aggregation. Platelet aggregation is measured by a modification of the method described in A. Wissnet, et. al., J. Med. Chem., 27 1174, 1984.
Approximately 120-240 ml of blood is collected by cardiac puncture from unanesthetized male New Zealand White rabbits (Whaley's Summit View Farms, Belvedere, N.J.) with the use of 3.2% sodium citrate anticoagulant (1 part of citrate/10 parts of blood). All syringes and pipers are plastic. The blood is gently mixed and immediately centrifuged at 800 rpm for 10-15 minutes at room temperature to recover the platelet rich plasma (PRP). Platelet poor plasma (PPP) is prepared by centrifuging PRP at 2800 rpm for 10 minutes at room temperature.
Dilutions (113000) of PRP in Isoton, diluent are made and platelet counts are determined on a Coulter Thrombocounter which is standardized with platelet reference standards (Interscience Platelet Control, Portland, Oreg.). PRP platelet counts are adJusted to approximately 400,000-500,000 platelets/11 by the addition of PPP.
L-PAF (Platelet Activating Factor) is obtained from Calbiochem. A stock solution of 1-2 E-3M is prepared in 10% ethanol in water or 100% methanol and serial working dilutions are made using saline. E-3M stock solutions of test compounds are prepared in 100% methanol and serially diluted in PBS. Sonication of samples before testing in biological screens assists in the solubility of compounds in the liquid medium. All solutions are made up in plastic tubes, stored on ice and protected from heat and light. Solutions are prepared fresh or frozen at -20° C. and used within 48 hours.
Incubation mixtures consisted of 400 11 PRP, 50 11 of saline diluent or test compound and 50 11 of PAF agohist. More specifically, 40011 of PRP is stabilized in a cuvette for 1-2 minutes at 37° C. in the aggregometer to achieve a stable baseline, then 50 11 of saline or test compound is added and incubated for 5 minutes before addition of the challenge concentration of PAF. A submaximal concentration is determined from the dose response curve for PAF for that experiment. In general, the challenge concentration is 5E-8 or 1E-7M. Aggregation is monitored for 5 minutes. Samples containing test compound or diluent are run simultaneously for comparison. Test compounds are initially evaluated at a screening concentration of 1E-SM.
The recording equipment consists of a dual channel Chronolog aggregometer connected to a dual channel 10MV full scale deflection Omniscribe chart recorder (Houston Instruments). The chart recorder is calibrated daily with the use of a suspension of Bio-Rad latex beads (S-X 12 400 mesh) which has a density slightly greater than rabbit PRP. The bead suspension is used to set the 0% light transmission mark and clear water is used to set the 100% light transmission mark. These limits defined a full scale deflection. The aggregation traces are analyzed by a digitizing method (C. Kohler and B. Zoltan, J. Pharm. Methods, 12, 113, 1984) with x, y coordinate data stored in a computer file. A suitable program computes parameters of interest such as the magnitude of aggregation.

T1 sequence (G1TEI7 1-342): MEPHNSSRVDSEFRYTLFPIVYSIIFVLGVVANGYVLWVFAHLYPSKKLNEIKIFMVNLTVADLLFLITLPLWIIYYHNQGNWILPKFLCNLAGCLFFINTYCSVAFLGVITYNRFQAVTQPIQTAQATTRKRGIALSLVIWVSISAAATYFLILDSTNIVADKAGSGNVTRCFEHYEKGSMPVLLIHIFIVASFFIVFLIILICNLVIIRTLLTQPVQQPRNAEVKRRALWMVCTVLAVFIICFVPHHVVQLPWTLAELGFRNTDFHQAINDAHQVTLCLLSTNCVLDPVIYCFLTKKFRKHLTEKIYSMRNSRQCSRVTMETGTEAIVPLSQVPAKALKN

| IC50 ([2]; PAF challenge 5.00E-08 M) | Molecule | responders at 0.5 mg/kg [1] [%] | other results |
| --- | --- | --- | --- |
|  | CCCCCCCCCCCCCCOc1ccc(CN(C(=O)c2ccc[n+](C)c2)c2ccccc2)cc1 [1-Methyl-3-[[phenyl[[4-(tetradecyloxy)phenyl]methyl]-amino]carbonyl]pyridinium iodide] | 69 |  |
|  | CCCCCCCCCCCCCCOc1ccc(CN(Cc2cccc[n+]2C)S(C)(=O)=O)cc1 [1-Methyl-2-[[(methylsulfonyl)[[4-(tetradecyloxy)-phenyl]methyl]amino]methyl]pyridinium iodide] | 55 |  |
|  | CCCCCCCCCCCCCCOc1ccc(CN(Cc2cccc[n+]2CC)C(C)=O)cc1 [2-[[Acetyl[[4-(tetradecyloxy)phenyl]methyl]amino]-methyl]-1-ethylpyridiniumiodide] |  | IC50 ([2]; PAF challenge 1.00E-07 M): 13 µM |
|  | CCCCCCCCCCCCCCOc1ccc(CN(Cc2ccc[n+](C)c2)C(C)=O)cc1 [3-[[Acetyl[[4-(tetradecyloxy)phenyl]methyl]amino]-methyl]-1-methylpyridinium iodide] | 38 | IC50 ([2]; PAF challenge 1.00E-08 M): 14 µM |
| 2.7 µM and 3.2 µM | CCCCCCCCCCCCCCCCOc1ccc(OCC(=O)NCCc2cccc[n+]2CC)cc1 [1-Ethyl-2-[2-[[[4-(hexadecyloxy)phenoxy]acetyl]-amino]ethyl]pyridinium iodide] |  | IC50 ([2]; PAF challenge 1.00E-07 M): 4.64 µM |
|  | CCCCCCCCCCCCCCOc1ccc(C(=O)N(Cc2cccc[n+]2C)S(C)(=O)=O)cc1 [1-Methyl-2-[[(methylsulfonyl)[4-(tetradecyloxy)-benzoyl]amino]methyl]pyridinium salt with trifluoromethanesulfonic acid (1:1)] | 88 |  |
| 60 µM | CCCCCCCCCCCCCCOc1ccc(CNC(=O)c2cc[n+](C)cc2)cc1 [1-Methyl-4-[[[[4-(tetradecyloxy)phenyl]methyl]amino]-carbonyl]pyridinium iodide] |  |  |
| 7.2 µM and 5.6 µM | CCCCCCCCCCCCCCCCOc1ccc(OCC(=O)NCc2cccc[n+]2CC)cc1 [1-Ethyl-2-[[[[4-(hexadecyloxy)phenoxy]acetyl]amino]-methyl]pyridinium iodide] |  |  |
|  | CCCCCCCCCCCCCCOc1ccc(C(=O)N(Cc2cccc[n+]2C)C(C)=O)cc1OCCCCCCCCCCCCCC [2-[[Acetyl[3,4-bis(tetradecyloxy)benzoyl]amino]-methyl]-1-methylpyridinium iodide] | 36 |  |
|  | CCCCCCCCCCCCCCOc1ccc(N(Cc2ccc[n+](C)c2)C(C)=O)cc1 [3-[[Acetyl[4-(tetradecyloxy)phenyl]amino]methyl]-1-methylpyridinium iodide] | 7 |  |
|  | 2-[[Acetyl[[4-(tetradecyloxy)-benzoyl]methyl]amino]methyl]-1-ethylpyridinium iodide |  | % Survival [1]: 40% |
| 280 µM | CCCCCCCCCCCCCCCCOc1ccc(OCC(=O)N(Cc2cccc[n+]2C)C(C)=O)cc1 [2-[[Acetyl[[4-(hexadecyloxy)phenoxy]acetyl]amino]-methyl]-1-methylpyridinium iodide] |  |  |
| 1 µM | CCCCCCCCCCCCCCOc1ccc(CN(Cc2cc[n+](C)cc2)C(C)=O)cc1 [4-[[Acetyl[[4-(tetradecyloxy)phenyl]methyl]amino]-methyl]-1-methylpyridinium iodide] |  |  |
|  | CCCCCCCCCCCCCCOc1ccc(C(=O)NCc2cccc[n+]2C)cc1OCCCCCCCCCCCCCC [1-Methyl-2-[[[3,4-bis(tetradecyloxy)benzoyl]amino]-methyl]pyridinium iodide] | 0 |  |
| 15 µM | CCCCCCCCCCCCCCOc1ccc(CC(=O)NCCc2cccc[n+]2C)cc1 [1-Methyl-2-[2-[[[4-(tetradecyloxy)phenyl]acetyl]-amino]ethyl]pyridinium iodide] |  |  |
|  | CCCCCCCCCCCCCCOc1ccc(CN(C(=O)c2ccc[n+](CCC)c2)c2ccccc2)cc1 [3-[[Phenyl[[4-(tetradecyloxy)phenyl]methyl]amino]-carbonyl]-1-propylpyridinium iodide] | 64 |  |
|  | CCCCCCCOc1ccc(C(=O)N(Cc2cccc[n+]2C)C(C)=O)cc1OCCCCCCC [2-[[Acetyl[3,4-bis(heptyloxy)benzoyl]amino]methyl]-1-methylpyridinium iodide] | 45 |  |
| 1.5 µM | CCCCCCCCCCCCCCOc1ccc(C(=O)N(Cc2cccc[n+]2C)C(=O)c2ccccc2OC)cc1 [2-[[(2-Methoxybenzoyl)[4-(tetradecyloxy)]benzoyl]-amino]methyl]-1-methylpyridinium iodide] |  | % INH (% of inhibition of PAF induced platelet aggregation) ([2]; PAF challenge 5.00E-08 M): 0% |
|  | CCCCCCCCCCCCCCOc1ccc(C(=O)NCCc2cccc[n+]2C)cc1 [1-Methyl-2-[2-[[4-(tetradecyloxy)benzoyl]amino]-ethyl]pyridinium iodide] |  | IC50 ([2]; PAF challenge 1.00E-08 M): 14 µM |
| 20 µM | CCCCCCCCCCCCCCOc1ccc(C(=O)N(Cc2ccc[n+](C)c2)C(C)=O)cc1C(C)(C)C [3-[[Acetyl[3-(1,1-dimethylethyl)-4-(tetradecyloxy)-benzoyl]amino]methyl]-1-methylpyridinium iodide] |  |  |
|  | CCCCCCCCCCCCCCOc1ccc(COC(=O)N(Cc2cccc[n+]2C)C(C)=O)cc1 [2-[[Acetyl[[[4-(tetradecyloxyphenyl]methoxy]-carbonyl]amino]methyl]-1-methylpyridinium iodide] | 40 |  |
| 6.8 µM | CCCCCCCCCCCCCCOc1ccc(C(=O)N(Cc2ccc[n+](C)c2)C(C)=O)cc1 [3-[[Acetyl[4-(tetradecyloxy)benzoyl]amino]methyl]-1-methylpyridinium iodide] |  |  |

| Molecule | IC50 ([2]; PAF challenge 5.00E-08 M) | responders at 0.5 mg/kg [1] [%] | other results |
| --- | --- | --- | --- |
| CCCCCCCCCCCCCCOc1ccc(C(=O)N(Cc2cccc[n+]2C)C(C)=O)cc1OC [2-[[Acetyl[3-methoxy-4-(tetradecyloxy)benzoyl]amino]-methyl]-1-methylpyridinium iodide] | 0.0636 µM | 43 |  |
| CCCCCCCCCCCCCCOc1ccccc1CN(Cc1cccc[n+]1C)C(C)=O [2-[[Acetyl[[2-(tetradecyloxy)phenyl]methyl]amino]-methyl]-1-methylpyridinium iodide] | 43 µM | 23 |  |
| CCCCCCCCCCCCCCOc1cc(C(=O)N(Cc2cccc[n+]2C)C(C)=O)ccc1OC [2-[[Acetyl[4-methoxy-3-(tetradecyloxy)benzoyl]-amino]methyl]-1-methylpyridinium iodide] | 160 µM | 21 |  |
| CCCCCCCCCCCCCCOc1ccc(C(=O)N(Cc2cccc[n+]2C)C(C)=O)cc1.[I-] [2-[[Acetyl[4-(tetradecyloxy)benzoyl]amino]methyl]-1-methylpyridinium iodide] | 0.86 µM and 0.7 µM and 0.96 µM and 1.3 µM | 27 | % INH (% of inhibition of PAF induced platelet aggregation) ([2]; PAF challenge 5.00E-08 M): 0% |
| CCCCCCCCCCCCCCOc1ccc(C(=O)N(Cc2cccc[n+]2C)C(C)=O)cc1C(C)(C)C [2-[[Acetyl[3-(1,1-dimethylethyl)-4-(tetradecyloxy)-benzoyl]amino]methyl]-1-methylpyridinium iodide] | 0.0215 µM | 60 | IC50 ([2]; PAF challenge 1.00E-07 M): 0.0141 µM and 0.036 µM |
| CCCCCCCCCCCCCCOc1ccc(C(=O)N(Cc2cccc[n+]2Cc2ccccc2)C(C)=O)cc1 [2-[[Acetyl[4-(tetradecyloxy)benzoyl]amino]methyl]-1-(phenylmethyl)pyridinium bromide] | 300 µM | 0 |  |
| CCCCCCCCCCCCCCOc1ccc(C(=O)N(Cc2cccc[n+]2CC)C(C)=O)cc1OC.[I-] [2-[[Acetyl[3-methoxy-4-(tetradecyloxy)benzoyl]amino]-methyl]-1-ethylpyridinium iodide] | 0.0703 µM and 0.24 µM | 29 | % INH (% of inhibition of PAF induced platelet aggregation) ([2]; PAF challenge 5.00E-08 M): 95% |
